From patent publication US20250381143A1, “A SOLID PHARMACEUTICAL COMPOSITION” (ADLAI NORTYE BIOPHARMA CO., LTD., priority 2021, published 2025)

Assay: Biopharmaceutical Classification System class
Format: physicochemical
Source text: The present disclosure relates to a quality controllable solid dosage form and a process for its preparation, wherein the solid dosage form comprises a compound of formula 1 4-{(1S)-1-[({3-(difluoromethyl)-1-methyl-5-[3-(trifluoromethyl)phenoxy]-4-1H-pyrazolyl} carbonyl)amino]ethyl}benzoic acid (compound AN0025) and optionally at least one pharmaceutically acceptable carrier. […] The inventor unexpectedly found in the experiment that AN0025 tablets prepared by different processes can show good uniformity in in vitro dissolution experiments, and AN0025 tablets prepared with different API particle sizes have similar in vitro dissolution behavior and in vivo exposure.

## C[C@H](NC(=O)c1c(C(F)F)nn(C)c1Oc1cccc(C(F)(F)F)c1)c1ccc(C(=O)O)cc1 [AN0025, 4-{(1S)-1-[({3-(difluoromethyl)-1-methyl-5-[3-(trifluoromethyl)phenoxy]-4-1H-pyrazolyl}carbonyl)amino]ethyl}benzoic acid]
  Biopharmaceutical Classification System class: class IV
As per BCS class
  solubility: low solubility
